The values that follow come from patent US20230278995A1, “1,3,4-OXADIAZOLE DERIVATIVE COMPOUNDS AS HISTONE DEACETYLASE 6 INHIBITOR, AND THE PHARMACEUTICAL COMPOSITION COMPRISING THE SAME” (CHONG KUN DANG PHARMACEUTICAL CORP., priority 2020, published 2023).

For one assay, the target named is T1, human recombinant HDAC6 (Homo sapiens, UniProt Q9UBN7).
T1 construct: purchased Calbiochem Inc. 382180
T1 sequence (Q9UBN7 1-1215): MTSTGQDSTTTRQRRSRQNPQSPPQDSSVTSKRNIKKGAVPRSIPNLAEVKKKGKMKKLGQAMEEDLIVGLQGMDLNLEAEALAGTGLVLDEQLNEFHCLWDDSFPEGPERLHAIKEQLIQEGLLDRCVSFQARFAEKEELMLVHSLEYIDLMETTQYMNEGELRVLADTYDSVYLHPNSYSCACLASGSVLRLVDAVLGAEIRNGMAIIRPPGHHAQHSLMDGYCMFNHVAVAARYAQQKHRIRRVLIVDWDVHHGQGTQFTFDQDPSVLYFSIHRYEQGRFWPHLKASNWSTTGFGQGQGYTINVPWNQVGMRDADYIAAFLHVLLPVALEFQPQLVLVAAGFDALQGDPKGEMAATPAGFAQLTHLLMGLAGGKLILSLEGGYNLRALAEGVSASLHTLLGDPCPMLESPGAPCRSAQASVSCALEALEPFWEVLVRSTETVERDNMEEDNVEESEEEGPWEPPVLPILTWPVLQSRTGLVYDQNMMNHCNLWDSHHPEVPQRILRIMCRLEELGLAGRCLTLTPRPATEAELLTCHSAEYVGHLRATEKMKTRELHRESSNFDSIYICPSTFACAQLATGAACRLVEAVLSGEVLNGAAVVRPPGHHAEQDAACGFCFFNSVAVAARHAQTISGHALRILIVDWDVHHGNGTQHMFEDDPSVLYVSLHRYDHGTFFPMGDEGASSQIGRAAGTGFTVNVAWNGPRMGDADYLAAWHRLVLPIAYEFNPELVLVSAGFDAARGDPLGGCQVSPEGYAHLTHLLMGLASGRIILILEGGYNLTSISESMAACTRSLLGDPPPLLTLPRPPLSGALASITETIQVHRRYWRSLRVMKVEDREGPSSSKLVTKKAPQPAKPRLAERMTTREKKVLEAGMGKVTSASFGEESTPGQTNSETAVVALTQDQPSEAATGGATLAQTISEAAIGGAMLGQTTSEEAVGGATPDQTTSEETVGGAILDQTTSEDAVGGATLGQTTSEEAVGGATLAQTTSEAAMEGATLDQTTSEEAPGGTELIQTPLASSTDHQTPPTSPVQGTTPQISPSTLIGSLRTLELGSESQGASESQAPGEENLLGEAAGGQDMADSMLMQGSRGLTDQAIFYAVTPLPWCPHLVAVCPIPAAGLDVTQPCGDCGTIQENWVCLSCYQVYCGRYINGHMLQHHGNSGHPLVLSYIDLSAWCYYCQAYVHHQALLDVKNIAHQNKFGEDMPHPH
Kind of assay: HDAC enzyme activity inhibition assay (HDAC Fluorimetric Drug Discovery Kit), HDAC6. As to conditions: for HDAC6 selectivity (fold): HDAC1 vs HDAC6; for IC50: human recombinant HDAC6, same protocol as HDAC1. In kind it is biochemical. How it is done: (§1) For the HDAC1 enzyme activity test, human recombinant HDAC1 (BML-SE456) was used as an enzyme source and Fluor de Lys©-SIRT1 (BNL-K1177) was used as a substrate. After dispensing 5-fold diluted compounds into a 96-well plate, 0.3 μg of enzyme and 10 μM substrate were added to each well of the plate and allowed to react at 30° C. for 60 minutes. Next, Fluor de Lys© Developer II (BML-K1176) was added and reacted for 30 minutes to complete the reaction, and then the fluorescence values (Ex 360, Em 460) were measured using a multi-plate reader (Flexstation 3, Molecular Device). The HDAC6 enzymes were tested using human recombinant HDAC6 (382180) from Calbiochem Inc., according to the same protocol as the HDAC1 enzyme activity test method. With respect to the final result values, respective IC50 values were calculated using GraphPad Prism 4.0 program (Table 2).

The next assay addresses T2, human recombinant HDAC1 (Homo sapiens, UniProt Q13547).
T2 construct: purchased Enzo Life Sciences, Inc. BML-SE456
Kind of assay: HDAC enzyme activity inhibition assay (HDAC Fluorimetric Drug Discovery Kit), HDAC1. The note with it: human recombinant HDAC1, Fluor de Lys-SIRT1 substrate, 30° C. 60 minutes. In kind it is biochemical. How it is done: as §1

Structures are written as SMILES.

T2 sequence (Q13547 whole entry): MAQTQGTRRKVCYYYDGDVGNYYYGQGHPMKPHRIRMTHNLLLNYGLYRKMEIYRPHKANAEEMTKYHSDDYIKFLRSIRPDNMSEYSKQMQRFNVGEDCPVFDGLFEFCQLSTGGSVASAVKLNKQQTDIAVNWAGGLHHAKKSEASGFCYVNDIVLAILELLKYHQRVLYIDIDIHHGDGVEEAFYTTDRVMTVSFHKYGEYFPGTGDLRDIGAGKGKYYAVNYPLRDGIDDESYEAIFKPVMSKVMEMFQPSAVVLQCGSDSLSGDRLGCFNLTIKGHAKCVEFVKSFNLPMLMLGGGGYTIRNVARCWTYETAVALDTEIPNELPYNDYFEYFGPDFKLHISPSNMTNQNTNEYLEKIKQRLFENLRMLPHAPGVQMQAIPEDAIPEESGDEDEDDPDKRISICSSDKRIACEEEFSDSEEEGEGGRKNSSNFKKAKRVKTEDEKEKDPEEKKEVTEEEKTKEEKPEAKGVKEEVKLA

As to `O=C(N(Cc1ccc(-c2nnc(C(F)F)o2)cn1)c1ccccc1)C1(F)CCN(C2CC3(COC3)C2)CC1` [Compound 2995, N-((5-(5-(difluoromethyl)-1,3,4-oxadiazol-2-yl)pyridin-2-yl)methyl)-4-fluoro-N-phenyl-1-(2-oxaspiro[3.3]heptan-6-yl)piperidine-4-carboxamide], the “HDAC6 selectivity (fold)” value on human recombinant HDAC6 worked out at 600 fold. In addition, the results for the IC50 on human recombinant HDAC6 and on human recombinant HDAC1 were 0.0833 µM and greater than 50 µM, respectively.

On to `O=C(N(Cc1ccc(-c2nnc(C(F)F)o2)cn1)c1ccccc1)C1(F)CCN(C2CCCC2)CC1` [Compound 2996, 1-cyclopentyl-N-((5-(5-(difluoromethyl)-1,3,4-oxadiazol-2-yl)pyridin-2-yl)methyl)-4-fluoro-N-phenylpiperidine-4-carboxamide], for which, on human recombinant HDAC6, the “HDAC6 selectivity (fold)” value was 443 fold and the half-inhibitory concentration (IC50) (usually the concentration at which inhibition is half-maximal) worked out at 0.0561 µM. Also, the half-inhibitory concentration (IC50) at human recombinant HDAC1 came out at 24.9 µM.

With `O=C(N(Cc1ccc(-c2nnc(C(F)F)o2)cn1)c1ccccc1)C1(F)CN(C2CCCCC2)C1` [Compound 2999, 1-cyclohexyl-N-((5-(5-(difluoromethyl)-1,3,4-oxadiazol-2-yl)pyridin-2-yl)methyl)-3-fluoro-N-phenylazetidine-3-carboxamide], on human recombinant HDAC6, the “HDAC6 selectivity (fold)” value was found to be 801 fold. The IC50 was 0.0624 µM at human recombinant HDAC6 and greater than 50 µM on human recombinant HDAC1.

As to `O=C(N(Cc1ccc(-c2nnc(C(F)F)o2)cn1)c1ccccc1)C1(F)CN(C2CCOCC2)C1` [Compound 3000, N-((5-(5-(difluoromethyl)-1,3,4-oxadiazol-2-yl)pyridin-2-yl)methyl)-3-fluoro-N-phenyl-1-(tetrahydro-2H-pyran-4-yl)azetidine-3-carboxamide], at human recombinant HDAC6, the “HDAC6 selectivity (fold)” value was 1,157 fold and the concentration for half-maximal inhibition (IC50) worked out at 0.0432 µM. Besides, the half-inhibitory concentration (IC50) on human recombinant HDAC1 was greater than 50 µM.

For `CCN1CC(F)(C(=O)N(Cc2ccc(-c3nnc(C(F)F)o3)cn2)c2ccccc2)C1` [Compound 3001, N-((5-(5-(difluoromethyl)-1,3,4-oxadiazol-2-yl)pyridin-2-yl)methyl)-1-ethyl-3-fluoro-N-phenylazetidine-3-carboxamide], at human recombinant HDAC6, the “HDAC6 selectivity (fold)” value is given as 1,000 fold and the IC50 amounted to 0.05 µM. In addition, the IC50 at human recombinant HDAC1 is greater than 50 µM.

As for `CCCN1CC(F)(C(=O)N(Cc2ccc(-c3nnc(C(F)F)o3)cn2)c2ccccc2)C1` [Compound 3002, N-((5-(5-(difluoromethyl)-1,3,4-oxadiazol-2-yl)pyridin-2-yl)methyl)-3-fluoro-N-phenyl-1-propylazetidine-3-carboxamide], on human recombinant HDAC6, the “HDAC6 selectivity (fold)” value was 943 fold and the half-inhibitory concentration (IC50) turned out to be 0.053 µM. Also, the IC50 on human recombinant HDAC1 is greater than 50 µM.

For the molecule `CCCCN1CC(F)(C(=O)N(Cc2ccc(-c3nnc(C(F)F)o3)cn2)c2ccccc2)C1` [Compound 3003, 1-butyl-N-((5-(5-(difluoromethyl)-1,3,4-oxadiazol-2-yl)pyridin-2-yl)methyl)-3-fluoro-N-phenylazetidine-3-carboxamide], at human recombinant HDAC6, the “HDAC6 selectivity (fold)” value was determined as 735 fold and the concentration for half-maximal inhibition (IC50) worked out at 0.0374 µM. Further, the IC50 on human recombinant HDAC1 came to 27.5 µM.

For `CC(C)CN1CC(F)(C(=O)N(Cc2ccc(-c3nnc(C(F)F)o3)cn2)c2ccccc2)C1` [Compound 3004, N-((5-(5-(difluoromethyl)-1,3,4-oxadiazol-2-yl)pyridin-2-yl)methyl)-3-fluoro-1-isobutyl-N-phenylazetidine-3-carboxamide], the “HDAC6 selectivity (fold)” value on human recombinant HDAC6 was 917 fold. For the same molecule, the IC50 at human recombinant HDAC6 amounted to 0.0284 µM; on human recombinant HDAC1, 26.1 µM.

Consider `CN(C)CCC(=O)N1CC(F)(C(=O)N(Cc2ccc(-c3nnc(C(F)F)o3)cn2)c2ccccc2)C1` [Compound 3006, N-((5-(5-(difluoromethyl)-1,3,4-oxadiazol-2-yl)pyridin-2-yl)methyl)-1-(3-(dimethylamino)propanoyl)-3-fluoro-N-phenylazetidine-3-carboxamide], for which the “HDAC6 selectivity (fold)” value at human recombinant HDAC6 is on record as 2,032 fold. The IC50 at human recombinant HDAC6 is 0.0246 µM; on human recombinant HDAC1 it was greater than 50 µM.

Turning to `CN(C)CCCC(=O)N1CC(F)(C(=O)N(Cc2ccc(-c3nnc(C(F)F)o3)cn2)c2ccccc2)C1` [Compound 3007, N-((5-(5-(difluoromethyl)-1,3,4-oxadiazol-2-yl)pyridin-2-yl)methyl)-1-(4-(dimethylamino)butanoyl)-3-fluoro-N-phenylazetidine-3-carboxamide], on human recombinant HDAC6, the “HDAC6 selectivity (fold)” value is 1,945 fold and the IC50 was found to be 0.0257 µM. The IC50 at human recombinant HDAC1 is greater than 50 µM.

For the molecule `CN1CC(F)(C(=O)N(Cc2ccc(-c3nnc(C(F)F)o3)cn2)c2cccc(F)c2)C1` [Compound 3047, N-((5-(5-(difluoromethyl)-1,3,4-oxadiazol-2-yl)pyridin-2-yl)methyl)-3-fluoro-N-(3-fluorophenyl)-1-methylazetidine-3-carboxamide], at human recombinant HDAC6, the “HDAC6 selectivity (fold)” value came to 242 fold and the half-inhibitory concentration (IC50) turned out to be 0.0857 µM. Moreover, on human recombinant HDAC1, the half-inhibitory concentration (IC50) amounted to 20.8 µM.

For `CC(C)N1CC(F)(C(=O)N(Cc2ccc(-c3nnc(C(F)F)o3)cn2)c2cccc(F)c2)C1` [Compound 3048, N-((5-(5-(difluoromethyl)-1,3,4-oxadiazol-2-yl)pyridin-2-yl)methyl)-3-fluoro-N-(3-fluorophenyl)-1-isopropylazetidine-3-carboxamide], on human recombinant HDAC6, the “HDAC6 selectivity (fold)” value was determined as 237 fold and the concentration for half-maximal inhibition (IC50) was found to be 0.078 µM. The IC50 on human recombinant HDAC1 was 18.5 µM.

Consider `O=C(N(Cc1ccc(-c2nnc(C(F)F)o2)cn1)c1cccc(F)c1)C1(F)CN(C2CCC2)C1` [Compound 3049, 1-cyclobutyl-N-((5-(5-(difluoromethyl)-1,3,4-oxadiazol-2-yl)pyridin-2-yl)methyl)-3-fluoro-N-(3-fluorophenyl)azetidine-3-carboxamide], for which, at human recombinant HDAC6, the “HDAC6 selectivity (fold)” value was determined as 392 fold and the IC50 came to 0.055 µM. Also, the half-inhibitory concentration (IC50) on human recombinant HDAC1 was 21.6 µM.

`O=C(N(Cc1ccc(-c2nnc(C(F)F)o2)cn1)c1cccc(F)c1)C1(F)CN(C2COC2)C1` [Compound 3050, N-((5-(5-(difluoromethyl)-1,3,4-oxadiazol-2-yl)pyridin-2-yl)meth 1)-3-fluoro-N-(3-fluorophenyl)-1-(oxetan-3-yl)azetidine-3-carboxamide]: the “HDAC6 selectivity (fold)” value on human recombinant HDAC6 is 683 fold. In addition, the IC50 on human recombinant HDAC6 is 0.0732 µM; on human recombinant HDAC1 it was greater than 50 µM.

Consider `O=C(N(Cc1ccc(-c2nnc(C(F)F)o2)cn1)c1cccc(F)c1)C1(F)CN(C2CCOC2)C1` (stereo not drawn) [Compound 3052, N-((5-(5-(difluoromethyl)-1,3,4-oxadiazol-2-yl)pyridin-2-yl)methyl)-3-fluoro-N-(3-fluorophenyl)-1-(tetrahydrofuran-3-yl)azetidine-3-carboxamide], for which, on human recombinant HDAC6, the “HDAC6 selectivity (fold)” value was found to be 854 fold and the IC50 was 0.0585 µM. Moreover, the IC50 at human recombinant HDAC1 was greater than 50 µM.

As for `O=C(N(Cc1ccc(-c2nnc(C(F)F)o2)cn1)c1cccc(F)c1)C1(F)CN(C2CCCCC2)C1` [Compound 3053, 1-cyclohexyl-N-((5-(5-(difluoromethyl)-1,3,4-oxadiazol-2-yl)pyridin-2-yl)methyl)-3-fluoro-N-(3-fluorophenyl)azetidine-3-carboxamide], the “HDAC6 selectivity (fold)” value at human recombinant HDAC6 was 668 fold. In addition, the IC50 on human recombinant HDAC6 is 0.0748 µM; at human recombinant HDAC1, greater than 50 µM.
